Data on 28 compounds can be found in ChEMBL document CHEMBL5608113, “Targeting of CAF-induced therapy resistance in CRC organoid-stroma co-cultures” (2024).

Square brackets hold non-standard residues; d marks the D form. Peptide text beside a SMILES is read from it. Arg(Me) = CNC(=N)NCCC[C@H](N)C(=O)O; d3Pal = N[C@H](Cc1cccnc1)C(=O)O; d4Pal = N[C@H](Cc1ccncc1)C(=O)O; azaGly = NNC(=O)O

As usually defined, the viability is a read-out of living cells in per cent, often relative to untreated cells.

Common to all, as to format: functional, Homo sapiens
Holding throughout (details): Homo sapiens, read-out: Cell Viability; for viability at 10 µM: Concentration 10 uM; for viability at 1 µM: Concentration 1 uM

The test system of experiment [1] is Colon cancer organoid. In words: Targeting of F14 CAF-induced therapy resistance in O14 CRC organoid-stroma co-culture. Cell viability is reported without Gefitinib.
Experiment [2] concerns Colon cancer organoid. In words: Targeting of F14 CAF-induced therapy resistance in O23 CRC organoid-stroma co-culture. Cell viability is reported without Gefitinib.
The test system of experiment [3] is Colon cancer organoid. The experiment can be described thus: Targeting of F14 CAF-induced therapy resistance in O23 CRC organoid-stroma co-culture. Cell viability is reported with Gefitinib.
Experiment [4] relates to Colon cancer organoid. In words: Targeting of F14 CAF-induced therapy resistance in O14 CRC organoid-stroma co-culture. Cell viability is reported with Gefitinib.
The test system of experiment [5] is Colon cancer organoid. In words: Targeting of F14 CAF-induced therapy resistance in O23 CRC organoid-stroma co-culture. Cell viability is reported with SN-38.

Regarding `Cc1cc2c(-c3ccco3)cnc(N[C@H]3CCN(C)C[C@@H]3C(=O)NC3CCCCC3)c2[nH]c1=O` [GSK791], the viability at 10 µM in experiment [1] turned out to be 111%; in experiment [2], 76%; in experiment [3] it was 50%; in experiment [4], 26.2%; in experiment [5], 81.3%.

For `CNC(=O)c1cc(C(=O)N[C@H]2[C@@H]3COC[C@@H]32)cc2c1O[C@@H](CF)[C@@H]2c1ccccc1` [GSK943], the viability at 10 µM in experiment [1] was determined as 75.9%; in experiment [2], 67.7%; in experiment [3], 76.1%; in experiment [4] it was 30.9%; in experiment [5], 64.3%.

Consider `CNC(=O)c1cc(C(=O)N[C@H]2[C@@H]3COC[C@@H]32)cc2c1O[C@H](CF)[C@H]2c1ccccc1` [GSK973], for which the viability at 10 µM in experiment [1] worked out at 99.3%; in experiment [2] it was 102%; in experiment [3] it was 58.5%; in experiment [4], 23.6%; in experiment [5], 46.5%.

For `O=C(O)c1ccc(-c2c[nH]c3ncc(-c4ccccc4)cc23)cc1C1CCCC1` [GSK-650394], the viability at 10 µM in experiment [1] was 104%; in experiment [2], 136%; in experiment [3], 93.5%; in experiment [4] it was 65%; in experiment [5] it was 82.6%.

As to `Cc1c(Oc2ccc(F)cc2)c(OC(C)C)nn1-c1ccc(C2CC2)cn1` [IPP/CNRS-A019], the viability at 10 µM in experiment [1] was found to be 84.4%; in experiment [2], 147%; in experiment [3] it was 86.4%; in experiment [4], 50.2%; in experiment [5], 75.2%.

On to `COCCc1ccc(-c2c(C)nc3c(N4CCOCC4)ccnn23)cn1` [JNJ-42396302], for which the viability at 10 µM stood at 122% in experiment [1]; 143% in experiment [2]; 97% in experiment [3]; 65.9% in experiment [4]; 70.4% in experiment [5].

For the compound `COc1nc2ccc([C@@](O)(c3ccccc3)C3CCN(C(C)=O)CC3)cc2c(Cl)c1Cc1ccc(-n2cccn2)cc1` [JNJ-54119936], the viability at 10 µM in experiment [1] was 146%; in experiment [2], 106%; in experiment [3], 64.3%; in experiment [4] it was 45.8%; in experiment [5], 62.6%.

On to `CC(=O)Nc1ncc(CN2CCC[C@H](Cc3cc(C)nc(C)c3)C2)s1` [JNJ-65355394], for which the viability at 10 µM turned out to be 106% in experiment [1]; 103% in experiment [2]; 88.8% in experiment [3]; 47.9% in experiment [4]; 44.3% in experiment [5].

Consider `CC(=O)Nc1nc(CN2CCC[C@H](Cc3cc(C)nc(C)c3)C2)cs1` [JNJ-73924149], for which the viability at 10 µM in experiment [1] was 109%; in experiment [2], 125%; in experiment [3], 79.3%; in experiment [4] it was 46.2%; in experiment [5] it was 79.9%.

`N#CN1CC[C@@H](C(=O)Nc2nc3c(s2)CN(C(=O)CN=[N+]=[N-])CC3)C1` [JYQ88]: the viability at 10 µM in experiment [1] came out at 137%; in experiment [2] it was 76.5%; in experiment [3], 45.5%; in experiment [4] it was 34.4%; in experiment [5], 78.4%.

Consider `CNC(=N)NCCC[C@H](NC(=O)[C@H](CC(C)C)NC(=O)NNC(=O)[C@H](Cc1ccccc1)NC(=O)[C@H](CO)NC(=O)[C@H](CC(N)=O)NC(=O)[C@@H](Cc1ccncc1)NC(=O)[C@H](N)Cc1ccc(O)cc1)C(=O)N[C@@H](Cc1ccccc1)C(N)=O` [KISS1-305] (H-[dY][d4Pal]NSF[azaGly]L[Arg(Me)]F-NH2), for which the viability at 10 µM in experiment [1] was found to be 119%; in experiment [2], 97.6%; in experiment [3], 66.9%; in experiment [4], 52.8%; in experiment [5] it was 61.3%.

Regarding `CNC(=N)NCCC[C@H](NC(=O)[C@H](CC(C)C)NC(=O)NNC(=O)[C@H](Cc1ccccc1)NC(=O)[C@H](CO)NC(=O)[C@H](CC(N)=O)NC(=O)[C@@H](Cc1cccnc1)NC(=O)[C@H](N)Cc1ccc(O)cc1)C(=O)NCC(N)=O` [KISS1-543] (H-[dY][d3Pal]NSF[azaGly]L[Arg(Me)]G-NH2), the viability at 10 µM was determined as 103% in experiment [1]; 93.8% in experiment [2]; 49.7% in experiment [3]; 62.9% in experiment [4]; 71.6% in experiment [5].

As to `CCS(=O)(=O)Nc1ccc(Oc2ccc(F)cc2F)c(-c2cn(C)c(=O)c3[nH]ccc23)c1` [MIVEBRESIB], the viability at 10 µM came to 5.68% in experiment [1]; 37.5% in experiment [2]; 29.2% in experiment [3]; 1.95% in experiment [4]; 25.4% in experiment [5].

For the compound `CN([C@@H]1CCc2c(CC(=O)O)c3ccccc3n2C1)S(=O)(=O)c1ccc(F)cc1` [MK-7246], the viability at 10 µM stood at 88.6% in experiment [1]; 79.7% in experiment [2]; 46.3% in experiment [3]; 43.4% in experiment [4]; 76.2% in experiment [5].

Turning to `C[C@@H]1CN(c2cc(-c3nn(C)c4ccc(OC5(C)CC5)cc34)ncn2)C[C@H](C)O1` [MLi-2-NC], the viability at 10 µM in experiment [1] turned out to be 77.2%; in experiment [2], 107%; in experiment [3], 40.9%; in experiment [4], 28.6%; in experiment [5] it was 62.4%.

On to `C[C@@H]1CN(c2cc(-c3n[nH]c4ccc(OC5(C)CC5)cc34)ncn2)C[C@H](C)O1` [MLi-2], for which the viability at 1 µM in experiment [1] was 113%; in experiment [2] it was 102%; in experiment [3], 41%; in experiment [4] it was 27.4%; in experiment [5] it was 46.4%.

`O=S(=O)(NC1CCC(c2cc(F)ccc2F)(S(=O)(=O)c2ccc(Cl)cc2)CC1)C(F)(F)F` (stereo not given) [MRK-560]: the viability at 1 µM is 73.7% in experiment [1]; 130% in experiment [2]; 60.6% in experiment [3]; 32.8% in experiment [4]; 64.4% in experiment [5].

Take `CC(=O)c1c(NS(C)(=O)=O)c2cc(-c3ccc(Cl)cc3)c(-c3ccc(Cl)cc3Cl)nc2n(C)c1=O` [MRL-CB1-NC]: the viability at 10 µM in experiment [1] was determined as 148%; in experiment [2], 92.4%; in experiment [3] it was 48.2%; in experiment [4], 53.2%; in experiment [5], 60.4%.

`Cc1ccc(-c2cnc([C@@]3(O)CC[C@H](C(=O)O)C(C)(C)C3)s2)cc1Nc1cccc(C(F)(F)F)n1` [MRL-SYKi-NC]: the viability at 10 µM was found to be 110% in experiment [1]; 139% in experiment [2]; 51.3% in experiment [3]; 48.6% in experiment [4]; 73.3% in experiment [5].

For `Cc1cc(Nc2nccc(C)n2)cc(-c2cnc([C@@]3(O)CC[C@H](C(=O)O)C(C)(C)C3)s2)c1` [MRL-SYKi], the viability at 1 µM in experiment [1] came out at 137%; in experiment [2], 127%; in experiment [3], 63.4%; in experiment [4], 32.9%; in experiment [5] it was 81.4%.

Consider `COc1cc(C(=O)O)ncc1C#Cc1ccccc1NS(=O)(=O)c1cccc2c(N(C)C)ccnc12` [MSC-0516], for which the viability at 10 µM in experiment [1] amounted to 117%; in experiment [2], 131%; in experiment [3], 47.7%; in experiment [4] it was 45.9%; in experiment [5], 79.4%.

For `FC(F)(F)c1ccc2c(c1)nc(-c1cccnc1)n2C1CC1` [MSD-CYP11B2-Negative-control], the viability at 10 µM came to 65.1% in experiment [1]; 150% in experiment [2]; 69.7% in experiment [3]; 32.7% in experiment [4]; 92.9% in experiment [5].

Consider `CC(C)(O)c1cncc(-c2nc3ccc(F)cc3n2C2CC2)c1` [MSD-CYP11B2], for which the viability at 10 µM in experiment [1] amounted to 107%; in experiment [2], 144%; in experiment [3] it was 79.5%; in experiment [4], 39%; in experiment [5] it was 94.9%.

Consider `N#CC1(c2ccccn2)CCN(Cc2cc(C(=O)N3CCCC3)c(=O)n3ccccc23)CC1` [MSD-M1PAM-NC], for which the viability at 10 µM in experiment [1] came out at 93.4%; in experiment [2] it was 136%; in experiment [3], 81.2%; in experiment [4] it was 35.2%; in experiment [5] it was 63.2%.

In the case of `N#CC1(c2ccccn2)CCN(Cc2cc(C(=O)O)c(=O)n3ccccc23)CC1` [MSD-M1PAM], the viability at 10 µM in experiment [1] stood at 84.9%; in experiment [2] it was 118%; in experiment [3] it was 64.3%; in experiment [4], 37%; in experiment [5] it was 71.9%.

Regarding `CC(=O)Nc1c(C(C)=O)c(=O)n(C)c2nc(-c3ccc(Cl)cc3Cl)c(-c3ccc(Cl)cc3)cc12` [NAPHTHYRIDINONE], the viability at 10 µM in experiment [1] was determined as 119%; in experiment [2], 109%; in experiment [3], 58.3%; in experiment [4] it was 48.1%; in experiment [5], 81.5%.

Turning to `CO[C@@H](C)c1c(Nc2ccc([C@@H](N(C)C(=O)C3CCS(=O)(=O)CC3)C(F)(F)F)cc2)cnc2cc(Cl)nn12` [NVS-MALT1-C], the viability at 10 µM in experiment [1] came out at 84.5%; in experiment [2], 119%; in experiment [3], 70.3%; in experiment [4], 34.3%; in experiment [5], 82.8%.

For `CO[C@@H](C)c1c(Nc2ccc([C@H](N(C)C(=O)C3CCS(=O)(=O)CC3)C(F)(F)F)cc2)cnc2cc(Cl)nn12` [NVS-MALT1], the viability at 10 µM is 106% in experiment [1]; 226% in experiment [2]; 60.9% in experiment [3]; 36.8% in experiment [4]; 89.1% in experiment [5].
